In brackets after ≈: the same amount, converted by molar mass. Read-outs that look alike come from different tables or passages of the source.
Assays:
S. typhi = assay: Antimicrobial serial tube dilution, MIC and MBC; assay type: cell-based, Salmonella typhi MTCC 3216; conditions: Salmonella enterica, TYPHI; for MIC: 24 h, read-out: S. typhi MIC; for MBC: read-out: S. typhi MBC
Method: (§1) The synthesized diazenyl chalcones (C18 to C27) and controls (dyes A and E, and chalcone) were assessed for their antimicrobial activity by estimation of MIC and MBC/MFC values. […] The stock solutions of the test compounds and standard drugs having a concentration of 1000 µg ml^−1 were prepared by dissolving the used compounds in DMSO. The nutrient broth/Sabouraud dextrose broth was used for the serial dilution of the test compounds and referenced drugs for bacterial and fungal cultures, respectively. […] The size of the final inoculum in each test tube was taken as 5 × 10^5 CFU ml^−1. The incubation of the test and standard compounds of varying concentrations was done for 24 h at 37 ± 2 °C (bacterial culture) and for 48 h at 37 ± 2 °C (C. albicans) and for 7 d at 25 ± 2 °C (A. fumigatus). The diazenyl chalcones (C18–C27), were further evaluated for their bactericidal/fungicidal activity by estimation of MBC/MFC values. […] For proper mixing of culture media, the plates were shaken gently followed by incubation at the predefined temperature and time as stated earlier, followed by the visual inspection of the plates for signs of microbial growth.

A. fumigatus = assay: Antimicrobial serial tube dilution, MIC and MFC; assay type: cell-based, Aspergillus fumigatus MTCC 2584
Method: as §1

S. aureus = assay: Antimicrobial serial tube dilution, MIC and MBC; assay type: cell-based, Staphylococcus aureus MTCC 2901; conditions: Staphylococcus aureus; for MIC: 24 h, read-out: S. aureus MIC; for MBC: read-out: S. aureus MBC
Method: as §1

C. albicans = assay: Antimicrobial serial tube dilution, MIC and MFC; assay type: cell-based, Candida albicans MTCC 227
Method: as §1

[1] = DPPH scavenging antioxidant assay
Method: The derivatives (C18–C27) were assessed for their antioxidant potential in the presence of the stable free radical DPPH using ascorbic acid as the standard compound [36, 37]. […] The total volume of 200 µl was used in each well for each concentration of the test and standard drug containing 0.004 µg DPPH. The assay was performed in triplicate at all concentrations of each sample and standard compound. DPPH solutions in methanol at the same concentration without test drugs were used as the control. Each concentration of the sample and standard has a different blank. To minimize evaporation, the plate was covered with the lid and wrapped in aluminium foil and kept in the dark place in order to protect the DPPH radical from degradation by light and left for 30 min. After 30 min of incubation, the plate was kept in ELISA reader to measure the absorbance values at 517 nm. The experiment was performed in triplicate. The antioxidant activity of each sample was then calculated as per cent inhibition of DPPH according to the following equation: %decolourationofDPPH=ControlAbs-SampleAbs×100/ControlAbs

B. subtilis = assay: Antimicrobial serial tube dilution, MIC and MBC; assay type: cell-based, Bacillus subtilis MTCC 2063; conditions: Bacillus subtilis; for MIC: 24 h, read-out: B. subtilis MIC; for MBC: read-out: B. subtilis MBC
Method: as §1

tested bacterial strains = assay: Antimicrobial serial tube dilution, ranges over several bacterial strains; assay type: cell-based
Method: as §1

[2] = test system: HEK human embryonic kidney cells; assay: MTT cytotoxicity assay, HEK; assay type: cell-based; conditions: 48 h
Method: (§2) The cell lines employed in the investigation were purchased from the National Centre for Cell Sciences (NCCS), Pune, India. The cell lines were cultured in DMEM fortified with 10% FBS, L-glutamine, sodium bicarbonate, and solution of antibiotics (streptomycin 100 μg ml^−1 + penicillin-100 U ml^−1). The culture of cell lines was stored under 5% CO2 incubation at 37 °C.
(§3) The compounds showing maximum activity (antimicrobial and antioxidant potential) were screened for cytotoxicity against A549 and HEK cell lines using MTT assay. Initially, 96-well microculture plate was seeded with 1 × 10^4 cells in 100 µl/well DMEM/MEM, supplemented with 10% FBS followed by incubation at a temperature of 37 °C for a period of 24 h under 5% CO2 atmosphere. After that, the test compounds and camptothecin were added to the cells to achieve a concentration of 10, 25, 50 and 100 µg. MTT reagent (10 µl) of concentration of 5 mg ml^−1 added to all the wells after the duration of 48 h. The plate was incubated further for 4 h followed by careful removal of supernatant from each well. To dissolve the formazan crystals, 100 µl of DMSO was added, and the ELISA reader was used to check the absorbance at 570 nm wavelength. In order to calculate the IC50 concentration, the following equation, i.e. A = Bx + C, was used. In this case, A = 50, while the values B and C values were obtained from the survival curve plot. This study was carried out in duplicate.

[3] = test system: A549 human lung cancer cell line; assay: MTT cytotoxicity assay, A549; assay type: cell-based; conditions: Homo sapiens, A549; MTT, 48 h
Method: as §2, §3

B. cereus = assay: Antimicrobial serial tube dilution, MIC and MBC; assay type: cell-based, Bacillus cereus MTCC 1305; conditions: Bacillus cereus; for MIC: 24 h, read-out: B. cereus MIC; for MBC: read-out: B. cereus MBC
Method: as §1

E. coli = assay: Antimicrobial serial tube dilution, MIC and MBC; assay type: cell-based, Escherichia coli MTCC 1652; conditions: for MIC / MBC: Escherichia coli; for MIC: 24 h, read-out: E. coli MIC, 24 h at 37 ± 2 °C; for MBC: read-out: E. coli MBC
Method: as §1

fungal strains = assay: Antimicrobial serial tube dilution, ranges over fungal strains; assay type: cell-based; conditions: read-out: IC50 against fungal strains
Method: as §1

[4] = test system: HEK human embryonic kidney cells; parameters: method as in PMID 27302903; conditions: cited from earlier work
[5] = Aspergillus fumigatus, 168 h, read-out: A. fumigatus MIC
[6] = Aspergillus fumigatus, read-out: A. fumigatus MFC
[7] = Candida albicans, 48 h, read-out: C. albicans MIC
[8] = Candida albicans, read-out: C. albicans MFC
[9] = B. cereus, S. typhi and S. aureus

SMILES | MIC (S. typhi) | MBC (S. typhi) | MIC (A. fumigatus; [5]) | MFC (A. fumigatus; [6]) | MIC (S. aureus) | MBC (S. aureus) | MIC (C. albicans; [7]) | MFC (C. albicans; [8]) | IC50 DPPH [1] | % inhibition of DPPH ([1]; 1.56 µg ml^−1) | % inhibition of DPPH ([1]; 3.12 µg ml^−1) | % inhibition of DPPH ([1]; 6.25 µg ml^−1) | % inhibition of DPPH ([1]; 12.5 µg ml^−1) | % inhibition of DPPH ([1]; 25 µg ml^−1) | % inhibition of DPPH ([1]; 50 µg ml^−1) | % inhibition of DPPH ([1]; 100 µg ml^−1) | melting point | MIC (B. subtilis) | MBC (B. subtilis) | IC50 [3] | other results
O=C(/C=C\c1cc(Br)ccc1O)c1ccc(N=Nc2ccc([N+](=O)[O-])cc2Cl)c(O)c1 [Compound C-22, (2Z)-3-(5-Bromo-2-hydroxyphenyl)-1-(4-((2-chloro-4-nitrophenyl)diazenyl)-3-hydroxyphenyl) prop-2-en-1-one] | 3.9 µg/mL (≈ 7.76 µM) | 7.81 µg/mL (≈ 15.5 µM) | 62.5 µg/mL (≈ 124 µM) | 125 µg/mL (≈ 249 µM) | 3.9 µg/mL (≈ 7.76 µM) | 31.2 µg/mL (≈ 62.2 µM) | 31.2 µg/mL (≈ 62.2 µM) | 31.2 µg/mL (≈ 62.2 µM) | > 100 µg/mL | 8.25% | 9.26% | 10.25% | 11.79% | 14.15% | 16.34% | 23.27% | 160 to 162 °C | 1.95 µg/mL (≈ 3.88 µM) | 7.81 µg/mL (≈ 15.5 µM) | 156.4 ± 1.23 µg/mL (≈ 311 µM) | MBC range (tested bacterial strains; over tested bacterial strains): 3.90 to 7.81 µg/mL; MIC range (tested bacterial strains; over tested bacterial strains): 1.95 to 3.90 µg/mL; IC50 [2]: 296.4 ± 2.32 µg/mL (≈ 590 µM); MIC (B. cereus): 3.9 µg/mL (≈ 7.76 µM); MBC (B. cereus): 3.9 µg/mL (≈ 7.76 µM); MIC (E. coli): 1.95 µg/mL (≈ 3.88 µM); MBC (E. coli): 7.81 µg/mL (≈ 15.5 µM)
OC(Cn1cncn1)(Cn1cncn1)c1ccc(F)cc1F [Fluconazole, fluconazole, reference compound] |  |  |  |  |  |  |  |  |  |  |  |  |  |  |  |  |  |  |  |  | MIC (A. fumigatus; Aspergillus fumigatus, 168 h; 7 d at 25 ± 2 °C; read-out: A. fumigatus MIC): 15.6 µg/mL (≈ 51 µM); MFC (A. fumigatus; Aspergillus fumigatus; read-out: A. fumigatus MFC): 125 µg/mL (≈ 408 µM); MIC (C. albicans; Candida albicans; 48 h at 37 ± 2 °C; read-out: C. albicans MIC): 7.81 µg/mL (≈ 25.5 µM); MFC (C. albicans; Candida albicans; read-out: C. albicans MFC): 31.2 µg/mL (≈ 102 µM); IC50 (fungal strains): 7.81 to 15.6 µg/mL (≈ 25.5 to 51 µM)
O=C(/C=C\c1ccco1)c1ccc(N=Nc2c(O)cccc2O)cc1 [Compound C-24, (2Z)-1-(4-((2,6-Dihydroxyphenyl)diazenyl)phenyl)-3-(furan-2-yl)prop-2-en-1-one] | 7.58 µg/mL (≈ 22.7 µM) | 15.6 µg/mL (≈ 46.7 µM) | 125 µg/mL (≈ 374 µM) | 125 µg/mL (≈ 374 µM) | 15.6 µg/mL (≈ 46.7 µM) | 15.6 µg/mL (≈ 46.7 µM) | 62.5 µg/mL (≈ 187 µM) | 125 µg/mL (≈ 374 µM) | 15.88 µg/mL (≈ 47.5 µM) | 24.16% | 26.13% | 34.65% | 54.71% | 77.38% | 96.46% | 99.17% | 315 to 317 °C | 31.2 µg/mL (≈ 93.5 µM) | 62.5 µg/mL (≈ 187 µM) | 109 ± 3.21 µg/mL (≈ 326 µM) | log IC50 DPPH ([1]; Fig. 1): 1.201; MBC range (tested bacterial strains; [9]): 15.62 to 31.25 µg/mL; MIC range (tested bacterial strains; [9]): 7.81 to 15.62 µg/mL; IC50 [2]: 280.4 ± 1.21 µg/mL (≈ 839 µM); MIC (B. cereus): 15.6 µg/mL (≈ 46.7 µM); MBC (B. cereus): 15.6 µg/mL (≈ 46.7 µM); E. coli MIC (E. coli; 24 h at 37 ± 2 °C): 15.62 µg/mL; MIC (E. coli): 7.81 to 15.6 µg/mL (≈ 23.4 to 46.7 µM); MBC (E. coli): 31.2 µg/mL (≈ 93.5 µM)
CC[C@@]1(O)C(=O)OCc2c1cc1n(c2=O)Cc2cc3ccccc3nc2-1 [Std, camptothecin, reference compound] |  |  |  |  |  |  |  |  |  |  |  |  |  |  |  |  |  |  |  | 8.7 µg/mL (≈ 25 µM) | HEK IC50 [4]: 9.0 [28] µg ml^−1

Reference: article PMC6661766, “Antimicrobial, antioxidant and cytotoxic evaluation of diazenyl chalcones along with insights to mechanism of interaction by molecular docking studies” (BMC Chemistry, 2019)
